Non-standard residues stand in square brackets, D forms with d. No end group written: not given here. *: point of attachment. Dnp = O=[N+]([O-])c1ccc(*)c([N+](=O)[O-])c1; 2Abz = Nc1ccccc1C(=O)O

Test [1] has as its system MASPs in purified MBL-MASP complex. Description: Substrate cleavage assay: kinetic constants of MASP proteolytic activity on synthetic C4-based substrates. In kind it is biochemical. The conditions noted are these: proteolytic activity of MASPs in purified MBL-MASP complex on the synthetic substrate; sigmoidal kinetics. The protocol: For quantitative measurements, typically the signal emitted by the label is measured from the beginning of the reaction and the results used to obtain an initial rate. Substrates consisting only of the residues N-terminal to the cleavage site of C4 show normal Michaelis-Menten kinetics for their cleavage by both C1s and the MBL-MASP complex. This means that the dependence of the initial velocity for the cleavage reaction on substrate concentration can be described by a rectangular hyperbola and the constants Km (Michaelis constant which equates to the affinity between enzyme and substrate) and Vmax (maximal velocity of the reaction) can be derived from a non-linear regression fit of the data. […]
The substrate (2Abz-[…]-Lys(Dnp)-NH2) includes the four amino acids before and after the C4 cleavage site and an aminobenzoic acid (Abz) fluorescent group attached to its N-terminal end. […] The change in fluorescence can then be measured and is proportional to the proteolytic activity of the enzyme.
The substrate and enzymes (C1s (10 μg/mL) or purified MBL material) are incubated for several minutes in a fluorescence plate reader set at 37° C. 100 μL of diluted substrate is then transferred into wells containing 100 μL diluted enzyme (C1s or purified MBL material) and the kinetics of fluorescence is measured as follows: excitation=320 nm; emission=420 nm. […]

Test [2] has as its system C4b deposition from MBL-deficient human serum on solid-phase mannan. Description: Functional complement (C4) deposition assay. In kind it is biochemical. The conditions noted are these: for Complement activation capacity (in words): Example 4 titration, 1-100 μg/ml. The protocol: All quantitation assays were standardised using an international, primary standard pool serum (Statens Serum Institut, Copenhagen, Denmark), containing 3.3 μg MBL/ml serum. For the sandwich ELISA and the C4 deposition assay, a standard curve was made with 1:25, 1:50, 1:75, 1:100, 1:150 and 1:200 dilutions of this serum, tested in triplicate. Standard dilutions for the mannan binding ELISA were 1:25, 1:50, 1:100, 1:150, 1:200, 1:300 and 1:400. Diluents were as detailed below. An in-house secondary control was prepared from pooled normal donor plasma and run in triplicate on each test plate, the results plotted for each run. Results of any test runs, in which values obtained for the in-house control MBL were outside +/−2SD from the previously determined mean value, led to rejection of the whole run. Run to run standard curves were overlayed to ensure a constant slope and thus provide another sensitive means of quality control.
Microtitre plates (as above) were coated overnight at 4° C. with 1 μg/mL mannan (Sigma-Aldrich Pty Ltd, Castle Hill, Australia) in fresh 50 mM carbonate-bicarbonate buffer, pH 9.6. Normal donor plasmas were tested in triplicate, diluted to 1:25 in TBST with 15 mM CaCl2, pH 7.2 which was also the wash buffer. A 1:10 dilution was also tested and interpreted only to confirm low or near absent levels of C4 deposition in donors with low amounts of MBL. After 90 minutes at 22° C., wells were washed 5 times and MBL-deficient human serum (completely deficient in MBL, obtained with informed consent) diluted 1:20 in barbital buffer, […], 10 mM sodium barbitone and 5 mM CaCl2 was added to wells and incubated at 22° C. for 30 minutes to enable complement activation. Wells were washed 5 times and biotinylated rabbit anti-human C4 (Sigma-Aldrich Pty Ltd) biotinylated using Biotin Tag (Sigma-Aldrich Pty Ltd) which was added at 1:1500 in TBST. Following incubation at 22° C. for 90 minutes, wells were washed 5 times and 1:500 ExtrAvidin peroxidase (Sigma-Aldrich Pty Ltd) in TBST was added and incubated at 22° C. for 40 minutes. Colour development and reading was as for the quantitation assays.
1 μl of Statens Serum Institut (SSI) MBL Standard was arbitrarily assigned 1 unit of C4 deposition activity. The assay was standardised against the SSI standard. Between run CV for the assay at 1:25 was 9.4%.
The positive control for MASP-2 activity was MASP containing, affinity-purified MBL complex. All fractions obtained in Example 1 were considered MASP-depleted with MASP activity measured as slope/sec less than 2.3 (range 0.5-2.3). […] Both MASP-depleted fractions and the MBL-MASP complex were titrated to provide MBL protein concentrations at 1 to 100 μg/ml. Fractions were assayed in parallel in the mannan-binding and C4-deposition assays as described in this document. The result from the Mannan-binding assay was plotted against C4 activity for each fraction.
The fractions supplied in Example 3 were pooled according to total protein concentration. […] The two MASP-depleted MBL pools were again titrated in the range of 1-100 μg/ml in parallel with the MBL-MASP complex. All samples were assayed on both the Mannan-binding and C4-deposition assays in parallel. Actual MBL quantification (mannan-binding assay) results were graphed against corresponding C4 activation capability for the fraction.

As for “2Abz-GLQRALEI-Lys(Dnp)-NH2 ([2Abz]GLQRALEIK(Dnp)-NH2; N-terminus assumed; SMILES CC[C@H](C)[C@H](NC(=O)[C@H](CCC(=O)O)NC(=O)[C@H](CC(C)C)NC(=O)[C@H](C)NC(=O)[C@H](CCCNC(=N)N)NC(=O)[C@H](CCC(N)=O)NC(=O)[C@H](CC(C)C)NC(=O)CNC(=O)c1ccccc1N)C(=O)N[C@@H](CCCCNc1ccc([N+](=O)[O-])cc1[N+](=O)[O-])C(N)=O) [C4 (P4-P4′), quenched fluorescent substrate with the four amino acids before and after the C4 cleavage site]”, in test [1], the “Affinity constant K0.5” value was determined as 6.50 ± 0.32 µM.

Turning to “MASP Pool 8-9: pool of MASP-depleted MBL fractions 8 and 9, total protein 35 μg/ml”, in test [2], the “Complement activation capacity (in words)” value is “reached the high assay limit”. Moreover, the C4 was 0.049 U/ul in test [2] (MBL 1.122 ug/mL, Table 3); 0.108 U/ul in test [2] (MBL 2.032 ug/mL, Table 3); 0.189 U/ul in test [2] (MBL 4.278 ug/mL, Table 3); 0.31 U/ul in test [2] (MBL 6.506 ug/mL, Table 3); 0.403 U/ul in test [2] (MBL 7.362 ug/mL, Table 3); 0.435 U/ul in test [2] (MBL 8.995 ug/mL, Table 3). For the same substance, the C4 in test [2] (MBL 10.205 ug/mL, Table 3) is on record as 0.48 U/ul; in test [2] (MBL 12.718 ug/mL, Table 3), 0.552 U/ul; in test [2] (MBL 20 ug/mL, Table 3) it was 0.595 U/ul; in test [2] (MBL 30 ug/mL, Table 3), 0.776 U/ul; in test [2] (MBL 35 ug/mL, Table 3) it was 0.969 U/ul.

Consider “MASP-depleted Frac. 3: fraction 3 of purified MASP-depleted MBL from the Example 1 Sephacryl S-300 column, 40 μg/mL”, for which the C4 in test [2] (MBL 1.02 ug/mL, Table 2) was found to be 0.107 U/ul; in test [2] (MBL 2.1 ug/mL, Table 2), 0.202 U/ul; in test [2] (MBL 2.57 ug/mL, Table 2), 0.359 U/ul; in test [2] (MBL 5.65 ug/mL, Table 2), 0.568 U/ul; in test [2] (MBL 7.97 ug/mL, Table 2), 0.761 U/ul; in test [2] (MBL 10.53 ug/mL, Table 2) it was 0.818 U/ul. Moreover, the C4 result in test [2] (MBL 12 ug/mL, Table 2) is listed as “xs”; in test [2] (MBL 16 ug/mL, Table 2), “xs”; in test [2] (MBL 20 ug/mL, Table 2), “xs”; in test [2] (MBL 30 ug/mL, Table 2), “xs”; in test [2] (MBL 40 ug/mL, Table 2) it was “xs”.

As to “MASP-depleted Frac. 5: fraction 5 of purified MASP-depleted MBL from the Example 1 Sephacryl S-300 column, 80 μg/mL”, the C4 in test [2] (MBL 1.32 ug/mL, Table 2) amounted to 0.081 U/ul; in test [2] (MBL 2.49 ug/mL, Table 2) it was 0.137 U/ul; in test [2] (MBL 5.11 ug/mL, Table 2) it was 0.304 U/ul; in test [2] (MBL 7.83 ug/mL, Table 2), 0.417 U/ul; in test [2] (MBL 8.79 ug/mL, Table 2) it was 0.465 U/ul; in test [2] (MBL 10 ug/mL, Table 2), 0.671 U/ul. Moreover, the C4 in test [2] (MBL 12 ug/mL, Table 2) is given as 0.716 U/ul; in test [2] (MBL 16 ug/mL, Table 2), 0.805 U/ul; in test [2] (MBL 20 ug/mL, Table 2), 0.762 U/ul; in test [2] (MBL 30 ug/mL, Table 2), 0.906 U/ul; in test [2] (MBL 40 ug/mL, Table 2), “xs”; in test [2] (MBL 80 ug/mL, Table 2), “xs”.

As for “MASP-depleted Pool 3-7: pool of MASP-depleted MBL fractions 3-7, total protein 85 μg/ml”, the “Complement activation capacity (in words)” value in test [2] is reported as “reached excess”. Further, the C4 in test [2] (MBL 1.124 ug/mL, Table 3) is listed as 0.043 U/ul; in test [2] (MBL 1.677 ug/mL, Table 3) it was 0.104 U/ul; in test [2] (MBL 3.905 ug/mL, Table 3), 0.25 U/ul; in test [2] (MBL 5.617 ug/mL, Table 3), 0.38 U/ul; in test [2] (MBL 7.151 ug/mL, Table 3), 0.506 U/ul; in test [2] (MBL 7.796 ug/mL, Table 3), 0.55 U/ul. Besides, the C4 is listed as 0.596 U/ul in test [2] (MBL 9.377 ug/mL, Table 3); 0.718 U/ul in test [2] (MBL 14.045 ug/mL, Table 3); 0.825 U/ul in test [2] (MBL 20 ug/mL, Table 3); 0.954 U/ul in test [2] (MBL 40 ug/mL, Table 3); “xs” in test [2] (MBL 80 ug/mL, Table 3); “xs” in test [2] (MBL 85 ug/mL, Table 3).

Values taken from patent US20050037949A1, “Mannose binding lectin and uses thereof” (priority 2002, published 2005).
